The results in this text go back to publication PMC12691742, “Anti-Cancer Outcome of Glucocorticoid Receptor Transrepression by Synephrine Derivatives in Hematological Malignancies” (International Journal of Molecular Sciences, 2025).

This experiment has as its system NF-kB activity in K562 and Granta cells. The experiment can be described thus: NF-kB.Luc reporter assay, positive control. The format is cell-based. To be noted: TPA 5 ng/mL or 10 ng/mL (method), 5 h. As to the method: We analyzed GR TR function using an NF-kB.Luc reporter assay with the irritating inflammatory agent phorbol 13-acetate 12-myristate (TPA) as an inducer of NF-kB signaling and positive control.
Figure 4 Effects of synephrine derivatives on GR transrepression in Granta lymphoma and K562 leukemia cells. (A) K562 and Granta cells stably infected with the lentiviruses bearing the NF-kB luciferase reporter. Cells were incubated for 5 h with the solvent (control), TPA (5 ng/mL), 4S-C2 (10 µM), 8S-E3 (10 µM), 10S-E2 (1 µM), or 13S-G2 (1 µM). Luciferase activity was determined as described in the Materials and Methods section. (B) IL1-α and IL6 mRNA expression in K562 and Granta cells. […] The mean ± SD was calculated for three individual samples/condition (n = 3). […]
Lentiviral stocks were generated using the lentiviral expression vector NF-kB. […] The infection efficiency exceeded 90% (tracked by GFP fluorescence).
Cells (10^4 cells/well in a 24-well plate), stably expressing Firefly Luciferase under the NF-kB promoter, were treated for 5 h with TPA (12-O-tetradecanoylphorbol-13-acetate, Boston, MA, USA, 10 ng/mL), 4S-C2 (10 µM), 8S-E3 (10 µM), 10S-E2 (1 µM), 13S-G2 (1 µM), or the vehicle. Luciferase activity was measured as described using a commercial Luciferase Assay (“Promega”, Madison, WI, USA) and Luminometer TD 20/20 (“Turner Design Instruments”, San Jose, CA, USA). […]

SMILES strings stand for the structures.

On to `CCCCCCCCCCCCCC(=O)O[C@@H]1[C@@H](C)[C@@]2(O)[C@@H](C=C(CO)C[C@]3(O)C(=O)C(C)=C[C@@H]23)[C@@H]2C(C)(C)[C@]12OC(C)=O` [TPA, 12-O-tetradecanoylphorbol-13-acetate], for which the NF-kB activation is recorded as 5-9 fold.
